Patent publication US20230149326A1, “PHARMACEUTICAL COMPOSITION FOR PREVENTING OR TREATING MUSCULAR WEAKNESS-RELATED DISEASES COMPRISING ALVERINE, 4-HYDROXY ALVERINE, DERIVATIVE THEREOF, OR PHARMACEUTICALLY ACCEPTABLE SALT THEREOF” (AVENTI INC., priority 2020, published 2023)

Tests used:
[1] = tested on: C2C12 cells; experiment: Promotion of differentiation of myoblasts (MyHC fluorescent staining); assay type: cell-based, mouse
Description: C2C12 (American Type Culture Collection, CRL-1772™) cells are a myoblast cell line obtained from C3H mouse and is used in myoblast differentiation research. The C2C12 cells were cultured using growth media, and then cultured using differentiation media for differentiation induction. Here, DMEM supplemented with 10% fetal bovine serum was used as growth media (GM), and DMEM supplemented with 5% horse serum (HS) was used as differentiation media (DM). In order to confirm the effect of alverine citrate on promoting the differentiation of myoblasts, C2C12 cells were dispensed in the GM of Example 1.1 and cultured for 24 hours, and then the C2C12 cells were treated with DMSO, insulin, or alverine citrate, and induced for differentiation over 3 days. […] Here, the DMSO, insulin and alverine citrate used in the experiment were all purchased from Sigma-Aldrich. The group treated with insulin was used as the positive control group. In particular, C2C12 cells were dispensed in a 6-well plate treated with the GM of Example 1.1 at a concentration of 5×10^5 cells per plate and after 24 hours, were replaced with DMEM media supplemented with 5% HS and induced for differentiation. Thereafter, the cells were treated with DMSO, insulin (1.72 μM) or alverine citrate (0.01 μM, 0.1 μM, 1 μM or 10 μM). After 3 days, after removing the media, the cells were washed with phosphate buffer solution (1× PBS) and treated with paraformaldehyde (4%) and fixed at room temperature for 15 minutes. Then, after washing three times with phosphate buffer solution (1× PBS), PBS containing 0.3% triton X-100 was treated with permeabilization buffer and allowed to react at room temperature for 10 minutes. After washing three times with phosphate buffer solution (1× PBS), PBST (blocking buffer, PBS containing 0.5% Tween 20) containing 2% bovine serum albumin was administered and allowed to react for 30 minutes to suppress nonspecific binding of antibodies. After washing with phosphate buffer (1× PBS) three times, 100 μL of primary antibodies (SC-20641, Santa Cruz Biotechnology) to MYH3 diluted to 1:500 were added and allowed to react at room temperature for 1 hour. Thereafter, after washing with phosphate buffer (1× PBS) three times, 100 μL of secondary antibodies (Goat anti-Rabbit IgG-HRP) diluted to 1:5,000 were added and allowed to react at room temperature for 1 hour. After 1 hour, for nuclear staining, after washing with phosphate buffer (1× PBS) three times, the blocking buffer was treated with diluted DAPI dye and allowed to react at room temperature for 10 minutes. Thereafter, after washing with phosphate buffer (1× PBS) three times, the washed cover glass was measured for absorbance at a wavelength of 450 nm and a fluorescent image was taken using a fluorescence microscope. The anti-MyHC antibody stained area was analyzed using imageJ (Java-based image processing program). To confirm the effect of 4-hydroxy alverine on promoting myoblast differentiation, following the same method as Example 1, DMSO, insulin (1.72 μM), alverine citrate (0.01 μM, 0.1 μM, 1 μM or 10 μM), 4-hydroxy alverine (0.01 μM, 0.1 μM, 1 μM or 10 μM) were each administered, and differentiation to myotubes and changes in myotube thickness and diameter were observed.

[2] = tested on: C2C12 cells; experiment: Myotube atrophy induced by C26 cancer cell conditioned medium (cachexia model); assay type: cell-based, mouse; settings: 1 μM; differentiation media with 33% CM, 3 days
Description: In order to confirm a cachexia treatment effect of alverine citrate and 4-hydroxy alverine, an experiment mimicking a tumor-growth environment by treatment of a cancer cell conditioned medium (CM) was conducted as an ex vivo approach. First, cancer cell CM was prepared using a C26 cancer cell line. Here, as cancel cell growth media (GM), RPMI1640 media supplemented with 10% fetal bovine serum was used. The C26 cancer cell line was cultured using a 100 mm cell culture plate and the cancer cell GM. Here, the media were removed when cell confluency reached 90%. Then, after washing with phosphate buffer (1× buffer), the prepared differentiation media were treated following the same process as in Example 1. After 24 hours, a C26 cancer cell line CM was obtained and filtered using bottle top filters (Thermo, PES, 1 L) before use.
C2C12 cells were dispensed in a 6-well plate treated with the GM of Example 1.1 at a concentration of 5×10^5 cells per plate and after 24 hours, were replaced with DMEM media supplemented with 5% HS and induced for differentiation. […] Here, by treating the experimental groups with 1 μM alverine citrate (AC) and 4-hydroxy alverine (4HA), the effect of suppressing myotube atrophy was evaluated. […] Following the same method as in Example 1.2, by florescent staining using antibodies against MyHC, the expression amount of MyHC was measured.

[3] = tested on: sarcopenia-induced mice; experiment: Running ability test, sarcopenia-induced mouse; assay type: in vivo; settings: hindlimb-immobilized mice; oral 150 mg/kg/day (AC-H); compared with normal mouse
Description: Running ability was measured using a treadmill designed specific for this experiment. First, aversive stimuli were provided by letting electric stimuli flow at the starting point. Before the measurement, the mice were acclimatized at 8 m/min for 10 minutes. The running time was recorded by allowing mice in each group to run in separate lanes until exhaustion. Exhaustion was defined such that when the mouse stays outside the lanes for 10 seconds or more without running, the mouse was determined to be exhausted and the time was recorded. It was not possible to repeat this experiment on the same mouse. The mouse was placed on the treadmill and the test was started at 8 rpm, and the speed was accelerated by 2 rpm every 10 minutes to a maximum speed of 20 rpm. The slope of the lane started from a zero-degree incline and then was elevated to a five-degree incline after 30 min from the start. In order to confirm a muscle strength enhancement effect of alverine citrate, sarcopenia-induced mice were administered with alverine citrate and tested for running ability. After the treadmill running test, muscle weight was measured. In particular, the hindlimb of 10 week-old C57BL/6 male mice was immobilized using a surgical stapler (Autosuture Royal 35W stapler). […] After that, running ability was measured. […] Running ability was measured by the same method as in Example 2.2.

[4] = tested on: C2C12 cells; experiment: Effect of alverine derivatives on promoting myoblast differentiation; assay type: cell-based, mouse; settings: 1 μM, 4 days; compared with DMSO alone
Description: C2C12 (American Type Culture Collection, CRL-1772™) cells are a myoblast cell line obtained from C3H mouse and is used in myoblast differentiation research. The C2C12 cells were cultured using growth media, and then cultured using differentiation media for differentiation induction. Here, DMEM supplemented with 10% fetal bovine serum was used as growth media (GM), and DMEM supplemented with 5% horse serum (HS) was used as differentiation media (DM).
In order to confirm the effect of an alverine derivative on promoting the differentiation of myoblasts, C2C12 cells were dispensed in the GM of Example 1.1 and cultured for 24 hours. Then, the C2C12 cells were treated with DMSO (Sigma-Aldrich), insulin, alverine (Sigma-Aldrich), or 27 types of alverine derivatives, each at a concentration of 1 μM and were induced for differentiation over 4 days. […]
After washing three times with phosphate buffer (1× PBS), PBST (blocking buffer, PBS containing 0.5% Tween 20) containing 2% bovine serum albumin was administered and allowed to react for 30 minutes to suppress nonspecific binding of antibodies. […] Thereafter, after washing with phosphate buffer (1× PBS) three times, the washed cover glass was measured for absorbance at a wavelength of 450 nm and a fluorescent image was taken using a fluorescence microscope.

CCN(CCCc1ccccc1)CCCc1ccc(O)cc1 [4-hydroxy alverine, 4-[3-[ethyl(3-phenylpropyl)amino]propyl]phenol]
differentiation of myoblasts to myotubes ([1]; compared with DMSO or insulin (1.72 μM), 0.01-10 μM): more differentiated to myotubes | differentiation promoting effect ([1]; compared with alverine at the same concentration): superior differentiation promoting effect than alverine | myotube atrophy [2]: myotube atrophy was suppressed

CCN(CCCc1ccccc1)CCCc1ccccc1 [Alverine, N-ethyl-3-phenyl-N-(3-phenylpropyl)propan-1-amine]
running time [3]: increased compared to the normal mouse | differentiation of myoblasts to myotubes [4]: promoted the differentiation to myotubes

insulin: positive control group, purchased from Sigma-Aldrich
differentiation of myoblasts to myotubes ([1]; compared with DMSO alone, 3 days, insulin 1.72 μM, alverine citrate 0.01-10 μM): more differentiated to myotubes
